Results from patent US11384063B2, “Modulators of estrogen receptor proteolysis and associated methods of use” (Arvinas Operations, Inc., priority 2017, dated 2022).

Experiments:
[1] = target: T1, ERα (Homo sapiens, UniProt P03372); assay: Estrogen receptor-alpha (ERα) degradation assay in MCF-7 cells using western blot; format: cell-based; design: assessed for their activity in degrading ERα in MCF-7 cells via western blot; endogenous in cells; host or cells: MCF7 cells; conditions: ER-alpha degradation, MCF7 cells, 3 days of incubation
T1 sequence (P03372 1-595): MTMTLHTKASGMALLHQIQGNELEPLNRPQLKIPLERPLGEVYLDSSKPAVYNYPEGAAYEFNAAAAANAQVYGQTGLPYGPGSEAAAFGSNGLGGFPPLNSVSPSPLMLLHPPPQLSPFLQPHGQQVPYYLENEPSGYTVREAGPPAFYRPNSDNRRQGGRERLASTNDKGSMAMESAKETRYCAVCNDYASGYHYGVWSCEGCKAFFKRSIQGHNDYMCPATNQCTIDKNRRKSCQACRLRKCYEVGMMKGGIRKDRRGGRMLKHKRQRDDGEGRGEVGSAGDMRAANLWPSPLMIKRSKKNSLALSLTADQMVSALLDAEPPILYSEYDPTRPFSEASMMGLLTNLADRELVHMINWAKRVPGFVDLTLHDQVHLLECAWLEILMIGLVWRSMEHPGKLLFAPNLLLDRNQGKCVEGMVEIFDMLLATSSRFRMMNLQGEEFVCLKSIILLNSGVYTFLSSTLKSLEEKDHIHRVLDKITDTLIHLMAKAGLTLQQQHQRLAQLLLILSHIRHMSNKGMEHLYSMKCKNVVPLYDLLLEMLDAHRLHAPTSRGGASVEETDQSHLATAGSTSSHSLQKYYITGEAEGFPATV
Experimental: Compounds prepared in this application were also analyzed for the degradation of ERα in MCF7 and T47D cells.
Estrogen Receptor-Alpha (ERα) Degradation Assay in MCF-7 Cells Using Western Blot Method for Table 4.
The exemplary novel ERα degraders were assessed for their activity in degrading ERα in MCF-7 cells via western blot. The assay was carried out in the presence of 10% fetal bovine serum (FBS) or high percentage of human or mouse serum.
MCF7 cells were grown in DMEM/F12 with 10% fetal bovine serum and seeded at 24,000 cells per well in 100 μl into 96-well clear tissue culture plates. The following day, the cells were treated with PROTACs in a […] concentration curve with 100 nM being the top concentration and serial dilutions to make the other concentrations (30 nM, 10 nM, 3 nM, 1 nM, and 0.3 nM). At all concentrations, 0.01% DMSO is the final concentration in the well. The following day, the plates are aspirated, washed with 50 μl of cold PBS. The cells are lysed with 50 μl/well 4° C. Cell Lysis Buffer (Catalog #9803; Cell Signaling Technology, Danvers, Mass.) (20 mM Tris-HCL (pH 7.5), 150 mM NaCl, 1 mM […], 1 mM EGTA, 1% Triton, 2.5 mM sodium pyrophosphate, 1 mM B-glycerophosphate, 1 mM sodium vanadate, 1 ug/ml leupeptin). Lysates were clarified at 16,000×g for 10 minutes, and 2 μg of protein was subjected to SDS-PAGE analysis and followed by immunoblotting according to standard protocols. The antibodies used were ERα (Cell Signaling Technologies Catalog #8644), and Tubulin (Sigma Catalog #T9026; St. Louis, Mo.). Detection reagents were Clarity Western ECL substrate (Bio-Rad Catalog #170-5060; Hercules, Calif.).
Alternatively, MCF7 cells were grown in DMEM/F12 with 10% fetal bovine serum and seeded at 24,000 cells per well in 500 μl in 24-well clear tissue culture plates. The following day, the cells were treated with PROTACs in a 5-point concentration curve (100 nM, 33 nM, 11 nM, 3.7 nM, and 1.2 nM) in the presence of 0.01% DMSO. After 72 hours, the wells are aspirated and washed with 500 μl of PBS. The cells are lysed with 100 μl/well 4° C. Cell Lysis Buffer (Catalog #9803; Cell Signaling Technology, Danvers, M A) (20 mM Tris-HCL (pH 7.5), 150 mM NaCl, 1 mM Na2EDTA, 1 mM EGTA, 1% Triton, 2.5 mM sodium pyrophosphate, 1 mM B-glycerophosphate, 1 mM sodium vanadate, 1 ug/ml leupeptin). Lysates were clarified at 16,000×g for 10 minutes, and 2 μg of protein was subjected to SDS-PAGE analysis and followed by immunoblotting according to standard protocols. The antibodies used were ER(X (Cell Signaling Technologies Catalog #8644), and Tubulin (Sigma Catalog #T9026; St. Louis, Mo.). Detection reagents were Clarity Western ECL substrate (Bio-Rad Catalog #170-5060; Hercules, Calif.).

[2] = target: T1, ERα; assay: ERE luciferase reporter gene assay in T47D-KBluc cells (target engagement); format: cell-based; design: T47D human breast cancer cells stably transfected with estrogen responsive element/promoter/luciferase reporter gene; host or cells: T47D-KBluc cells; conditions: 10% FBS, 24 hours, Table 2 VHL centric PROTACs, read-out: IC50
Summary of the method: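 T47D-KBluc breast cancer cells, which carry a stable ERE-luciferase reporter, were grown in RPMI with 10% FBS (about 10 pM estrogen) and exposed to PROTACs for 24 h. The 12-point, 3-fold series ran from 300 nM to 2 pM. Luciferase was read after lysis, and IC50 was fitted from duplicates.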

Row | Structure (SMILES) | DC50 [1] | Dmax [1] | IC50 [2]
1 | Cc1ncsc1-c1ccc(CNC(=O)[C@@H]2C[C@@H](O)CN2C(=O)[C@@H](NC(=O)COCCCCOc2ccc(-c3ccc(Oc4c(-c5ccc(F)cc5)sc5cc(O)ccc45)cc3)nc2)C(C)(C)C)cc1 [Compound 133, (2S,4R)-1-[(2S)-2-[2-(4-[[6-(4-[[2-(4-fluorophenyl)-6-hydroxy-1-benzothiophen-3-yl]oxy]phenyl)pyridin-3-yl]oxy]butoxy)acetamido]-3,3-dimethylbutanoyl]-4-hydroxy-N-[[4-(4-methyl-1,3-thiazol-5-yl)phenyl]methyl]pyrrolidine-2-carboxamide] | 1 to 10 nM | > 75% | 3.7 nM
2 | Cc1ncsc1-c1ccc(CNC(=O)[C@@H]2C[C@@H](O)CN2C(=O)[C@@H](NC(=O)COCCN2CCN(CCOc3ccc(Oc4c(-c5ccc(Br)cc5)sc5cc(O)ccc45)cc3)CC2)C(C)(C)C)cc1 [Compound 140, (2S,4R)-1-[(2S)-2-[2-(2-[4-[2-(4-[[2-(4-bromophenyl)-6-hydroxy-1-benzothiophen-3-yl]oxy]phenoxy)ethyl]piperazin-1-yl]ethoxy)acetamido]-3,3-dimethylbutanoyl]-4-hydroxy-N-[[4-(4-methyl-1,3-thiazol-5-yl)phenyl]methyl]pyrrolidine-2-carboxamide] | 1 to 10 nM | > 75% | 11 nM
3 | Cc1ncsc1-c1ccc([C@H](C)NC(=O)[C@@H]2C[C@@H](O)CN2C(=O)[C@@H](NC(=O)Cc2ccc(-c3ccn(CCOc4ccc(Oc5c(-c6ccc(F)cc6)sc6cc(O)ccc56)cc4)n3)cc2)C(C)(C)C)cc1 [Compound 141, (2S,4R)-1-[(2S)-2-[2-(4-[1-[2-(4-[[2-(4-fluorophenyl)-6-hydroxy-1-benzothiophen-3-yl]oxy]phenoxy)ethyl]-1H-pyrazol-3-yl]phenyl)acetamido]-3,3-dimethylbutanoyl]-4-hydroxy-N-[(1S)-1-[4-(4-methyl-1,3-thiazol-5-yl)phenyl]ethyl]pyrrolidine-2-carboxamide] | 1 to 10 nM | > 75% | 1.5 nM
4 | C[C@H](NC(=O)[C@@H]1C[C@@H](O)CN1C(=O)[C@@H](NC(=O)COCCOCCN1CCC(c2ccc(Oc3c(-c4ccc(F)cc4)sc4cc(O)ccc34)cc2)CC1)C(C)(C)C)c1ccc(C#N)cc1 [Compound 147, (2S,4R)—N-[(1S)-1-(4-cyanophenyl)ethyl]-1-[(2S)-2-[2-(2-[2-[4-(4-[[2-(4-fluorophenyl)-6-hydroxy-1-benzothiophen-3-yl]oxy]phenyl)piperidin-1-yl]ethoxy]ethoxy)acetamido]-3,3-dimethylbutanoyl]-4-hydroxypyrrolidine-2-carboxamide] | 1 to 10 nM | > 75% | 1 nM
5 | C[C@H](NC(=O)[C@@H]1C[C@@H](O)CN1C(=O)[C@@H](NC(=O)Cc1ccc(-c2ccn(CCOc3ccc(Oc4c(-c5ccc(F)cc5)sc5cc(O)ccc45)cc3)n2)cc1)C(C)(C)C)c1ccc(C#N)cc1 [Compound 149] | 1 to 10 nM | > 75% | 1.4 nM

Second part, the molecule after the results:

Row | DC50 [1] | Dmax [1] | IC50 [2] | Structure (SMILES)
6 | 1 to 10 nM | > 75% | 3.5 nM | Cc1ncsc1-c1ccc(CNC(=O)[C@@H]2C[C@@H](O)CN2C(=O)[C@@H](NC(=O)CCc2cccc(-c3ccn(CCOc4ccc(Oc5c(-c6ccc(F)cc6)sc6cc(O)ccc56)cc4)n3)c2)C(C)(C)C)cc1 [Compound 130, (2S,4R)-1-[(2S)-2-[3-(3-[1-[2-(4-[[2-(4-fluorophenyl)-6-hydroxy-1-benzothiophen-3-yl]oxy]phenoxy)ethyl]-1H-pyrazol-3-yl]phenyl)propanamido]-3,3-dimethylbutanoyl]-4-hydroxy-N-[[4-(4-methyl-1,3-thiazol-5-yl)phenyl]methyl]pyrrolidine-2-carboxamide]
7 | 1 to 10 nM | > 75% | 2.6 nM | Cc1ncsc1-c1ccc(CNC(=O)[C@@H]2C[C@@H](O)CN2C(=O)[C@@H](NC(=O)COCCOCCn2ccc(-c3ccc(Oc4c(-c5ccc(F)cc5)sc5cc(O)ccc45)cc3)cc2=O)C(C)(C)C)cc1 [Compound 134]
8 | < 1 nM | > 75% | 0.8 nM | Cc1ncsc1-c1ccc(CNC(=O)[C@@H]2C[C@@H](O)CN2C(=O)[C@@H](NC(=O)COCCOCCN2CCC(c3ccc(Oc4c(-c5ccc(F)cc5)sc5cc(O)ccc45)cc3)CC2)C(C)(C)C)cc1 [Compound 135, (2S,4R)-1-[(2S)-2-[2-(2-[2-[4-(4-[[2-(4-fluorophenyl)-6-hydroxy-1-benzothiophen-3-yl]oxy]phenyl)piperidin-1-yl]ethoxy]ethoxy)acetamido]-3,3-dimethylbutanoyl]-4-hydroxy-N-[[4-(4-methyl-1,3-thiazol-5-yl)phenyl]methyl]pyrrolidine-2-carboxamide]
9 | < 1 nM | > 75% | 0.1 nM | Cc1ncoc1-c1ccc([C@H](C)NC(=O)[C@@H]2C[C@@H](O)CN2C(=O)[C@@H](NC(=O)COCCOCCOCCOc2ccc(Oc3c(-c4ccccc4)sc4cc(O)ccc34)cc2)C(C)(C)C)cc1 [Compound 138, (2S,4R)-1-((S)-2-tert-butyl-14-(4-(6-hydroxy-2-phenylbenzo[b]thiophen-3-yloxy)phenoxy)-4-oxo-6,9,12-trioxa-3-azatetradecane)-4-hydroxy-N-((S)-1-(4-(4-methyloxazol-5-yl)phenyl)ethyl)pyrrolidine-2-carboxamide]
10 | < 1 nM | > 75% | 0.6 nM | Cc1ncsc1-c1ccc(CNC(=O)[C@@H]2C[C@@H](O)CN2C(=O)[C@@H](NC(=O)COc2cccc(CCN(C)CCOc3ccc(Oc4c(-c5ccc(F)cc5)sc5cc(O)ccc45)cc3)c2)C(C)(C)C)cc1 [Compound 139, (2S,4R)-1-[(2S)-2-[2-[3-(2-[[2-(4-[[2-(4-fluorophenyl)-6-hydroxy-1-benzothiophen-3-yl]oxy]phenoxy)ethyl](methyl)amino]ethyl)phenoxy]acetamido]-3,3-dimethylbutanoyl]-4-hydroxy-N-[[4-(4-methyl-1,3-thiazol-5-yl)phenyl]methyl]pyrrolidine-2-carboxamide]
11 | < 1 nM | > 75% | 0.5 nM | Cc1ncsc1-c1ccc([C@H](C)NC(=O)[C@@H]2C[C@@H](O)CN2C(=O)[C@@H](NC(=O)COCCOCCN2CCC(c3ccc(Oc4c(-c5ccc(F)cc5)sc5cc(O)ccc45)cc3)CC2)C(C)(C)C)cc1 [Compound 142, (2S,4R)-1-[(2S)-2-[2-(2-[2-[4-(4-[[2-(4-fluorophenyl)-6-hydroxy-1-benzothiophen-3-yl]oxy]phenyl)piperidin-1-yl]ethoxy]ethoxy)acetamido]-3,3-dimethylbutanoyl]-4-hydroxy-N-[(1S)-1-[4-(4-methyl-1,3-thiazol-5-yl)phenyl]ethyl]pyrrolidine-2-carboxamide]
